What was measured:
prickly sida [1] = experiment: Test Example 1: foliage treatment, upland pot test; assay type: in vivo, Sida spinosa L.; details: active ingredient 500 g/ha, observed 18th to 23rd day, 0 = non-treated, 100 = complete kill
green foxtail [2] = experiment: Test Example 2: soil surface treatment, upland pot test; assay type: in vivo, Setaria viridis L.; details: active ingredient 500 g/ha, observed 20th to 28th day
How it was run: (§1)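 Visual growth-control ratings, from 0 (like the non-treated plot) to 100 (total kill), were made between days 20 and 28 after a soil-surface spray. The compound, formulated as wettable powder or emulsifiable concentrate and diluted at 1,500 L/ha, went on one day post-sowing in upland-soil pots of 1/170,000 ha.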

soybean [3] = experiment: Test Example 1: foliage treatment, upland pot test; assay type: in vivo, Glycine max Merr.; details: crop, active ingredient 500 g/ha, observed 18th to 23rd day, 0 = non-treated, 100 = complete kill
How it was run: (§2)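 Crops and weeds were sown in upland soil pots and sprayed post-emergence at set leaf stages (soybean 0.1–0.4, wheat 1.3–2.4, rice 1.2–2.6, barnyardgrass 1.3–2.8). Formulated compound was applied in 500 L/ha water with 0.1% spreader. Growth control (0–100%) was rated visually 18–23 days later.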

corn [4] = experiment: Test Example 2: soil surface treatment, upland pot test; assay type: in vivo, Zea mays L.; details: active ingredient 500 g/ha, observed 20th to 28th day
How it was run: as §1

barnyardgrass [5] = experiment: Test Example 3: paddy pot test, application under submerged conditions; assay type: in vivo, Echinochloa crus-galli L.; details: submerged application at 0.5 leaf stage, visually observed 14 days after application, 0 = non-treated, 100 = complete kill
How it was run: (§3)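 Visual growth-control rating (0 = untreated, 100 = complete kill) 14 days after treatment. The formulated compound, as a diluted wettable powder or emulsifiable concentrate, went into 3–4 cm flood water at a predetermined active-ingredient dose once the weeds reached 0.5 leaf stage (wapato: primary leaf stage).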

velvetleaf [6] = experiment: Test Example 1: foliage treatment, upland pot test; assay type: in vivo, Abutilon theophrasti MEDIC.; details: active ingredient 500 g/ha, observed 18th to 23rd day, 0 = non-treated, 100 = complete kill
barnyardgrass [7] = experiment: Test Example 2: soil surface treatment, upland pot test; assay type: in vivo, Echinochloa crus-galli L.; details: active ingredient 500 g/ha, observed 20th to 28th day
How it was run: as §1

japanese bulrush = experiment: Test Example 3: paddy pot test, application under submerged conditions; assay type: in vivo, Scirpus juncoides; details: submerged application at 0.5 leaf stage, visually observed 14 days after application, 0 = non-treated, 100 = complete kill
How it was run: as §3

barnyardgrass [8] = experiment: Test Example 1: foliage treatment, upland pot test; assay type: in vivo, Echinochloa crus-galli L.; details: active ingredient 500 g/ha, observed 18th to 23rd day, 0 = non-treated, 100 = complete kill
How it was run: as §2

rice [9] = experiment: Test Example 1: foliage treatment, upland pot test; assay type: in vivo, Oryza sativa L.; details: crop, active ingredient 500 g/ha, observed 18th to 23rd day, 0 = non-treated, 100 = complete kill
How it was run: as §2

rice (var. Nihonbare) = experiment: Test Example 3: paddy pot test, transplanted rice; assay type: in vivo, Oryza sativa L.; details: applied 4th day after transplantation, visually observed 21st day after application, 0 = non-treated, 100 = complete kill
How it was run: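 Rice (var. Nihonbare) at 2 leaf stage transplanted 3 cm deep into puddled paddy soil under 3–4 cm flooding; on day 4 after transplanting, diluted wettable powder or emulsifiable concentrate applied by pipette under submerged conditions at a set active-ingredient dose. Growth scored visually 21 days after application, 0 (untreated) to 100 (complete kill) %.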

rice [10] = experiment: Test Example 2: soil surface treatment, upland pot test; assay type: in vivo, Oryza sativa L.; details: active ingredient 500 g/ha, observed 20th to 28th day
How it was run: as §1

crabgrass [11] = experiment: as above; assay type: in vivo, Digitaria sanguinalis L.; details: active ingredient 500 g/ha, observed 20th to 28th day
How it was run: as §1

corn [12] = experiment: Test Example 1: foliage treatment, upland pot test; assay type: in vivo, Zea mays L.; details: crop, active ingredient 500 g/ha, observed 18th to 23rd day, 0 = non-treated, 100 = complete kill
How it was run: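 In this upland pot foliage test, corn plants at 2.1 to 3.2 leaf stages were sprayed by a small size sprayer. The spray was a conventionally formulated wettable powder or emulsifiable concentrate weighed to a set active ingredient amount, diluted in water at 500 L/ha, plus 0.1% (v/v) agricultural spreader. Visual assessment on days 18 to 23 gave growth controlling degree (%), where 0 equals untreated and 100 means complete kill.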

prickly sida [13] = experiment: Test Example 2: soil surface treatment, upland pot test; assay type: in vivo, Sida spinosa L.; details: active ingredient 500 g/ha, observed 20th to 28th day
How it was run: as §1

redroot pigweed [14] = experiment: as above; assay type: in vivo, Amaranthus retroflexus L.; details: active ingredient 500 g/ha, observed 20th to 28th day
How it was run: as §1

japanese ribbon wapato = experiment: Test Example 3: paddy pot test, application under submerged conditions; assay type: in vivo, Sagittaria pygniaea; details: submerged application at primary leaf stage, visually observed 14 days after application, 0 = non-treated, 100 = complete kill
How it was run: as §3

redroot pigweed [15] = experiment: Test Example 1: foliage treatment, upland pot test; assay type: in vivo, Amaranthus retroflexus L.; details: active ingredient 500 g/ha, observed 18th to 23rd day, 0 = non-treated, 100 = complete kill
velvetleaf [16] = experiment: Test Example 2: soil surface treatment, upland pot test; assay type: in vivo, Abutilon theophrasti MEDIC.; details: active ingredient 500 g/ha, observed 20th to 28th day
How it was run: as §1

crabgrass [17] = experiment: Test Example 1: foliage treatment, upland pot test; assay type: in vivo, Digitaria sanguinalis L.; details: active ingredient 500 g/ha, observed 18th to 23rd day, 0 = non-treated, 100 = complete kill
soybean [18] = experiment: Test Example 2: soil surface treatment, upland pot test; assay type: in vivo, Glycine max Merr.; details: active ingredient 500 g/ha, observed 20th to 28th day
How it was run: as §1

green foxtail [19] = experiment: Test Example 1: foliage treatment, upland pot test; assay type: in vivo, Setaria viridis L.; details: active ingredient 500 g/ha, observed 18th to 23rd day, 0 = non-treated, 100 = complete kill

Row | SMILES | Growth controlling degree (%) Prickly sida (prickly sida [1]) | Growth controlling degree (%) Green foxtail (green foxtail [2]) | Growth controlling degree (%) Soybean (soybean [3]) | Growth controlling degree (%) Corn (corn [4]) | Growth controlling degree (%) Barnyardgrass (barnyardgrass [5]; active ingredient 125 g/ha) | Growth controlling degree (%) Velvetleaf (velvetleaf [6]) | Growth controlling degree (%) Barnyardgrass (barnyardgrass [7]) | Growth controlling degree (%) Japanese bulrush (japanese bulrush; active ingredient 125 g/ha) | Growth controlling degree (%) Barnyardgrass (barnyardgrass [8]) | Growth controlling degree (%) Rice (rice [9]) | Growth controlling degree (%) Rice (rice [10]) | Growth controlling degree (%) Crabgrass (crabgrass [11]) | Growth controlling degree (%) Corn (corn [12]) | Growth controlling degree (%) Prickly sida (prickly sida [13]) | Growth controlling degree (%) Redroot pigweed (redroot pigweed [14]) | Growth controlling degree (%) Redroot pigweed (redroot pigweed [15]) | Growth controlling degree (%) Velvetleaf (velvetleaf [16]) | Growth controlling degree (%) Crabgrass (crabgrass [17]) | Growth controlling degree (%) Soyabean (soybean [18]) | Growth controlling degree (%) Green foxtail (green foxtail [19]) | also measured
1 | CC(C)C(c1cnccc1Cl)N(C)C(=O)Cc1cccc(F)c1 (stereo not drawn) [I-65] | 80% | 60% | 20% | 30% | 98% | 70% | 60% | 90% | 10% | 20% | 20% | 90% | 0% | 10% | 50% | 90% | 10% | 60% | 0% | 10% | Growth controlling degree (%) Rice (rice (var. Nihonbare); active ingredient 125 g/ha): 0%; Growth controlling degree (%) Japanese ribbon wapato (japanese ribbon wapato; active ingredient 125 g/ha): 60%
2 | CC(C)C(c1cnccc1Cl)N(C)C(=O)Cc1ccccc1F (stereo not drawn) [I-66] | 60% | 50% | 50% | 10% | 98% | 70% | 80% | 90% | 20% | 10% | 40% | 90% | 40% | 30% | 60% | 50% | 40% | 70% | 50% | 70% | Growth controlling degree (%) Rice (rice (var. Nihonbare); active ingredient 125 g/ha): 10%; Growth controlling degree (%) Japanese ribbon wapato (japanese ribbon wapato; active ingredient 125 g/ha): 10%
3 | CC(C)C(c1cnccc1Cl)N(C)C(=O)Cc1ccc(F)cc1 (stereo not drawn) [I-67] | 80% | 95% | 50% | 40% | 100% | 60% | 90% | 98% | 50% | 10% | 10% | 95% | 0% | 80% | 40% | 60% | 60% | 90% | 10% | 70% | Growth controlling degree (%) Rice (rice (var. Nihonbare); active ingredient 125 g/ha): 0%; Growth controlling degree (%) Japanese ribbon wapato (japanese ribbon wapato; active ingredient 125 g/ha): 60%
4 | CC(C)C(c1cnccc1Cl)N(C)C(=O)Cc1ccc(C(F)(F)F)cc1 (stereo not drawn) [I-69] | 80% | 85% | 60% | 20% | 95% | 95% | 95% | 70% | 10% | 10% | 10% | 98% | 60% | 80% | 50% | 70% | 20% | 90% | 40% | 30% | Growth controlling degree (%) Rice (rice (var. Nihonbare); active ingredient 125 g/ha): 0%; Growth controlling degree (%) Japanese ribbon wapato (japanese ribbon wapato; active ingredient 125 g/ha): 40%
5 | CC(C)C(c1cnccc1Cl)N(C)C(=O)Cc1c(F)cccc1F (stereo not drawn) [I-70] | 80% | 70% | 30% | 0% | 80% | 80% | 80% | 70% | 40% | 20% | 40% | 98% | 50% | 50% | 70% | 50% | 0% | 80% | 0% | 60% | Growth controlling degree (%) Rice (rice (var. Nihonbare); active ingredient 125 g/ha): 10%; Growth controlling degree (%) Japanese ribbon wapato (japanese ribbon wapato; active ingredient 125 g/ha): 40%
6 | CC(C)C(c1cnccc1C(F)(F)F)N(C)C(=O)Cc1cc(F)ccc1F (stereo not drawn) [I-85] | 80% | 100% | 80% | 10% |  | 90% | 100% |  | 80% | 40% | 10% | 100% | 60% | 100% | 90% | 70% | 80% | 90% | 40% | 85% | Growth controlling degree (%) Barnyardgrass (barnyardgrass [5]; active ingredient 250 g/ha): 100%; Growth controlling degree (%) Japanese bulrush (japanese bulrush; active ingredient 250 g/ha): 98%; Growth controlling degree (%) Rice (rice (var. Nihonbare); active ingredient 250 g/ha): 0%; Growth controlling degree (%) Japanese ribbon wapato (japanese ribbon wapato; active ingredient 250 g/ha): 70%

From patent US20050239656A1, “Pyridine compounds or salts thereof and herbicides containing the same” (priority 2002, published 2005)
